In article PMC10989073, “Antineoplastic effect of compounds C14 and P8 on TNBC and radioresistant TNBC cells by stabilizing the K-Ras4B^G13D/PDE6δ complex” (Frontiers in Oncology, 2024):
Read-outs that look alike come from different tables or passages of the source.

Experiments:
MCF-10A cells = assay: XTT cell viability assay and IC50 determination; assay type: cell-based, human; conditions: for IC50: XTT, ± SD; for concentration required to observe any effect on cell viability: MCF-10A control cells, statistical analysis
Description: (§1) In order to evaluate the effect of the C14 and P8 compounds over MCF-10A, MCF-7, MDA-MB-231, and […] cell lines, the IC50 of those molecules was determined. In brief, all the cell lines were seeded at a density of 15,000 cells per well in a 96-well microtiter plate (Corning) in a corresponding growth medium for 24 h. Then, cells were treated with increasing concentrations (from 0 to 200 μM) of the C14 and P8 compounds (Enamine, Kyiv, Ukraine). As a positive control, increased concentrations of cisplatin (from 0 to 200 µM) (Accord, Mexico City, Mexico) were employed. Due to that, dimethyl sulfoxide (DMSO) was used as a vehicle, and its increased concentrations were evaluated as the negative control. All the samples were maintained under growth conditions for 24 h and 48 h. At the end of each time, cell viability was determined using the XTT Cell Proliferation Kit II (Roche Applied Science, Mannheim, Germany) following the manufacturer’s protocol. The absorbance was measured in a spectrophotometer Synergy-HTX (BioTek) at a wavelength of 450–500 nm with a reference wavelength of 650 nm. Cell proliferation was expressed as a percentage of viability [(absorbance of treated cells/absorbance of untreated cells × 100)] ± SD.

MCF-7 cells = assay: XTT cell viability assay and IC50 determination; assay type: cell-based, human; conditions: ± SD
Description: as §1

MDA-MB-231RR cells [1] = assay: XTT cell viability assay and IC50 determination; assay type: cell-based, human; conditions: for IC50: XTT, ± SD
Description: as §1

MDA-MB-231 cells = assay: Apoptosis/necrosis assay (Annexin V–propidium iodide, flow cytometry); assay type: cell-based, human; conditions: MDA-MB-231, 24 h; C14 and P8 at IC50-24, cisplatin 100 µM, doxorubicin 0.5 µM
Description: (§2) To determine if the C14 and P8 compounds were able to evoke cell death by apoptosis or necrosis, cell lines MCF-10A, MDA-MB-231, and MDA-MB-231RR were treated at IC50-24 for 24 h. Apoptosis and necrosis were determined using the Apoptosis/Necrosis Detection kit (Abcam, Cambridge, UK) according to the manufacturer’s instructions. In brief, approximately 500,000 cells were seeded in 6-well plates (Corning) for 24 h. Then, each cell line was treated with the respective IC50-24 concentrations of C14 and P8. […] Cells were harvested and collected by centrifugation. All the samples were analyzed in triplicate using flow cytometry equipment FACSCalibur instrument (BD Biosciences, San Jose, CA, USA) at […] and 575-nm emission. Data analysis was performed using the FlowJo software (Tree Star Inc., Ashland, OR, USA). All experiments were performed in triplicate.

MDA-MB-231RR cells [2] = assay: as above; assay type: cell-based, human; conditions: 24 h, C14 and P8 at IC50-24, cisplatin 100 µM, doxorubicin 0.5 µM
Description: as §2

Ras-GTP in MCF-10A cells = assay: Ras activation pull-down assay (Raf-RBD); assay type: cell-based, human; conditions: 3 h pre-treatment (C14, P8 at IC50-48H), EGF 100 ng/ml 10 min
Description: Subsequently, the cells were stimulated with epidermal growth factor (EGF) (100 ng/ml) for 10 minutes. Lysates (1 mg/ml) were exposed to Ras GTP-binding protein (Raf-RBD), following the manufacturer’s instructions. Experiments for each cell type and condition were repeated three times.

[3] = Body weight and survival of xenograft mice under treatment; assay type: in vivo
Description: Female immune-deficient Nu/Nu nude mice at 6–8 weeks of age ([…], Mexico City, Mexico) were maintained in pathogen-free conditions with irradiated chow. […] Body weight and tumor volume were measured every third day. Tumor sizes were calculated using the formula [(length × width2)/2] in mm.

[4] = tested on: MDA-MB-231RR xenograft tumors; assay: Immunohistochemistry and digital pathology of xenograft tumors; assay type: in vivo, Nu/Nu nude mice; conditions: for expression of CD31 (IHC) / mitotic index (H&E staining): MDA-MB-231RR xenograft tumors; for PCNA expression (IHC, digital pathology) / VEGF expression (IHC, digital pathology) / cyclin D1 expression (IHC, digital pathology): MDA-MB-231RR xenograft tumors after treatment; for mitotic index (H&E staining): compared to the control group
Description: To determine the impact of C14 and P8 drugs on tumor inhibition, angiogenic, and cell cycle markers in a xenograft model, immunohistochemical assays and digital pathological analysis were conducted. For tissue preparation, 4-µm-thick tumor sections underwent a series of preparations: i) deparaffinization in xylene, ii) antigen retrieval in a sodium citrate buffer at pH 6, iii) blocking of endogenous peroxidase activity using a 10% hydrogen peroxide solution, and iv) non-specific binding blockade for 1 h. For the antibody incubation, the tumor sections were incubated with primary antibodies: Anti-Cyclin D1 (Abcam), Anti-PCNA (Abcam), Anti-CD31 (Abcam), Anti-VEGF (Abcam) at a 1:500 dilution.
The incubation with primary antibodies occurred at room temperature overnight. Subsequently, secondary antibody incubation was conducted. Then, the sections were incubated with horseradish peroxidase (HRP)-conjugated secondary antibody for 30 minutes. Finally, visualization and staining were performed using a diaminobenzidine (DAB) detection system from Vector Laboratories, Inc. (Burlingame, CA, USA). Counterstaining was performed using hematoxylin.
For the mitotic index evaluation, hematoxylin and eosin (H&E) staining was conducted to calculate the mitotic index. From each H&E-stained tumor tissue, 10 random fields were captured at ×40 magnification, and the number of mitotic figures was counted. The average count was used to calculate the mitotic index using the following formula: Mitotic index = Number of mitoses/10.
For digital pathology analysis, the immunohistochemistry (IHC)-stained sections were digitized using an Aperio ScanScope CS2 from Leica Biosystems (Nussloch, Germany), which generated high-resolution ×20 digital images (0.45 µm/pixel). These images were analyzed using ImageScope (Aperio, San Diego, CA, USA) to quantify marker expression. Then, a quantification algorithm was developed for each tissue to assess total and nuclear protein expression. The ImageScope allowed setting thresholds for color saturation and defining upper and lower limits for intensities of weak, moderate, and strong positive pixels. Lastly, the raw data encompassed the number of positive pixels and the intensity of positive pixels, which were normalized to the number of total pixels counted in µm^2. Data were presented as total density per µm^2.

[5] = MCF-10A, 24 h, read-out: IC50-24
[6] = MCF-10A, 48 h, read-out: IC50-48

| SMILES | concentration required to observe any effect on cell viability (MCF-10A cells) | concentration from which a significant inhibitory effect on viability is seen (MDA-MB-231RR cells [1]; 48 h) | apoptosis cells (MDA-MB-231 cells) | necrosis (MDA-MB-231 cells) | apoptosis cells (MDA-MB-231RR cells [2]) | necrosis (MDA-MB-231RR cells [2]) | reduction in Ras-GTP (Ras-GTP in MCF-10A cells) | expression of CD31 (IHC) [4] | PCNA expression (IHC, digital pathology) [4] | VEGF expression (IHC, digital pathology) [4] | cyclin D1 expression (IHC, digital pathology) [4] | mitotic index (H&E staining) [4] | IC50 (MCF-10A cells; [5]) | IC50 (MCF-10A cells; [6]) | IC50 (MCF-7 cells; MCF-7, 24 h, read-out: IC50-24) | IC50 (MCF-7 cells; MCF-7, 48 h, read-out: IC50-48) | IC50 (MDA-MB-231RR cells [1]; 24 h, read-out: IC50-24) | IC50 (MDA-MB-231RR cells [1]; 48 h, read-out: IC50-48) | further results |
| --- | --- | --- | --- | --- | --- | --- | --- | --- | --- | --- | --- | --- | --- | --- | --- | --- | --- | --- | --- |
| O=C(CN1CCN(c2cccc(Cl)c2)CC1)N[C@@H]1CCOc2ccccc21 [P8, 2-[4-(3-chlorophenyl)piperazin-1-yl]-N-[(4R)-chroman-4-yl]acetamide] | > 150 µM | ≥ 10 µM | 48.5% | 4.28% | 72% | 1.75% | approximately 40% | decreased | 18 μm^2 | 3,000 μm^2 | 20 μm^2 | lower |  |  |  |  |  |  | IC50 (MCF-10A cells; Homo sapiens, MCF-10A, 24 h, read-out: IC50-24): > 200 µM; IC50 (MCF-10A cells; Homo sapiens, MCF-10A, 48 h, read-out: IC50-48): > 200 µM; IC50 (MCF-7 cells; Homo sapiens, MCF7, MCF-7, 24 h, read-out: IC50-24): 185 ± 15.3 µM; IC50 (MCF-7 cells; Homo sapiens, MCF7, MCF-7, 48 h, read-out: IC50-48): 104 ± 49.8 µM; IC50 (MDA-MB-231RR cells [1]; Homo sapiens, 24 h, read-out: IC50-24): 163 ± 16.8 µM; IC50 (MDA-MB-231RR cells [1]; Homo sapiens, 48 h, read-out: IC50-48): 156 ± 28.4 µM; tolerability (weight loss, overall survival) ([3]; Nu/Nu mice, 30 mg/kg i.p. daily): well tolerated |
| N.N.[Cl][Pt][Cl] [Cisplatin, cisplatin, reference compound] |  |  | 13.71% | 2.14% | up to 19.13% | 0.40% | did not show an effect |  | 22 μm^2 | 3,000 μm^2 | 25 μm^2 |  | 12 µM | 5.9 ± 1.6 µM | 150 ± 32.1 µM | 67.3 ± 20.6 µM | 200 µM | 104 ± 8.7 µM | reduction of cellular viability (MCF-10A cells; MCF-10A, at low concentrations): more than 90%; survival of mice ([3]; Nu/Nu mice, cisplatin 6 mg/kg i.p. daily): ≤ 6 days; weight decrease ([3]; Nu/Nu mice, cisplatin 6 mg/kg i.p. daily, within the first 5 days of treatment): > 20% |
| CN(CC(=O)NC1CCOc2ccccc21)Cc1cccc(Cl)c1 (stereo not shown) [C14, 2-[(3-chlorophenyl)-methyl-methyl-amino]-N-croman-4-yl-acetamide] | higher than 100 µM | ≥ 30 µM | up to 18.52% | 0.56% | up to 21.62% | 0.13% | approximately 40% | decreased | 10 μm^2 | 100 μm^2 | 8 μm^2 | lower | > 200 µM | > 200 µM | 174 ± 19 µM | 134 ± 10.5 µM | 128 ± 2.6 µM | 70.6 ± 3.5 µM | tolerability (weight loss, overall survival) ([3]; mouse, in vivo, ip, 30 mg/kg): well tolerated |
